Assay results reported in the Kinase Knowledgebase extract (Sharma et al. 2016).

Target: ROCK2 (human) (UniProt O75116)
Experiment: Inhibition of ROCK2 Kinase Activity

Chain of ROCK2 (human) (O75116 whole entry, looked up): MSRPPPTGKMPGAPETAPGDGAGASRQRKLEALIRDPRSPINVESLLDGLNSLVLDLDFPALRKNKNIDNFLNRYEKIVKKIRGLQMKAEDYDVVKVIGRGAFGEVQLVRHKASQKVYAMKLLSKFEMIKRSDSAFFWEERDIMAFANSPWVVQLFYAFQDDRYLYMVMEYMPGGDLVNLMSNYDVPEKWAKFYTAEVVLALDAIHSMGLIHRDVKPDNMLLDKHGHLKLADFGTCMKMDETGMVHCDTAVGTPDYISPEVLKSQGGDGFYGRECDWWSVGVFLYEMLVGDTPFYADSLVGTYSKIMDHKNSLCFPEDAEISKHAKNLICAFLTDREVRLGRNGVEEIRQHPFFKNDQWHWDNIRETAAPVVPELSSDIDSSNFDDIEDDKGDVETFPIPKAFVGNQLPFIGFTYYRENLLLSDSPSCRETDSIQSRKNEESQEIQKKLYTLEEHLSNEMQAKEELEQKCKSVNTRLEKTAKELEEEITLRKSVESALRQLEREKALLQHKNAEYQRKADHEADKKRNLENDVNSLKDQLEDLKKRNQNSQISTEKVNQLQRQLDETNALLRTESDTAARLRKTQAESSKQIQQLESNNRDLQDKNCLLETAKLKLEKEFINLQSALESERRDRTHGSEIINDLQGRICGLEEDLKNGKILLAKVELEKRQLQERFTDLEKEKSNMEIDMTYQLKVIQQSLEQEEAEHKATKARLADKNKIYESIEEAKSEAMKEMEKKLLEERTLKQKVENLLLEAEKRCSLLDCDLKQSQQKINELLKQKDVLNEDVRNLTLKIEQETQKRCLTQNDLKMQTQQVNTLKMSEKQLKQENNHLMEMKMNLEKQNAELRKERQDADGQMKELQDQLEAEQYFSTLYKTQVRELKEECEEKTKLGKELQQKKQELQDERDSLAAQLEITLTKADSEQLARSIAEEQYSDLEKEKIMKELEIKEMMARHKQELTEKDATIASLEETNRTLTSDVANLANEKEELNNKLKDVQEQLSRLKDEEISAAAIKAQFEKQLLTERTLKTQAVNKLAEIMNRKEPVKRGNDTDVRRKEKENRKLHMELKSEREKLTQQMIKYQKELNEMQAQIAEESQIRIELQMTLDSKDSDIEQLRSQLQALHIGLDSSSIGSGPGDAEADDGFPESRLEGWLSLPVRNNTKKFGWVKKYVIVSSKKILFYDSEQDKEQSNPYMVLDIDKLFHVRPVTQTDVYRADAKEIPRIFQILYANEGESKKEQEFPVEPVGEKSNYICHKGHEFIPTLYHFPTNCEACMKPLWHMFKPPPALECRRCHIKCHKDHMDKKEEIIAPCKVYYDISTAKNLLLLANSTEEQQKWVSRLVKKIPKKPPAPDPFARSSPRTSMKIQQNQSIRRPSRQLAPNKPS

| Compound | IC50 |
| --- | --- |
| Cc1ccccc1CCC(=O)NCc1nc(-c2c[nH]c3ncccc23)n[nH]1 | > 5 µM |
| O=C(NCc1nc(-c2c[nH]c3ncccc23)n[nH]1)c1ccccc1C(=O)c1ccc(F)cc1 | > 5 µM |
| COc1ccc(C(=O)NCc2nc(-c3c[nH]c4ncccc34)n[nH]2)c(OC)c1OC | > 5 µM |
| O=C(CCc1nc2ccccc2[nH]1)NCc1nc(-c2ccncc2)n[nH]1 | > 5 µM |
| O=C(CC1Cc2ccccc2C1)NCc1nc(-c2c[nH]c3ncccc23)n[nH]1 | > 5 µM |
| O=C(Cc1ccc(O)c(F)c1)NCc1nc(-c2c[nH]c3ncccc23)n[nH]1 | > 5 µM |
| O=C(NCc1nc(-c2c[nH]c3ncccc23)n[nH]1)c1c(O)ccc2ccccc12 | > 5 µM |
| CCCOc1ccc(C(=O)NCc2nc(-c3c[nH]c4ncccc34)n[nH]2)cc1 | > 5 µM |
| CN(Cc1nc(-c2ccncc2)n[nH]1)C(=O)c1cccs1 | > 5 µM |
| COc1ccccc1C=CC(=O)NCc1nc(-c2ccncc2)n[nH]1 | > 5 µM |
| CC(C)CC(NC(=O)OC(C)(C)C)C(=O)NCc1nc(-c2c[nH]c3ncccc23)n[nH]1 (configuration not stated) | > 5 µM |
| O=C(NCc1nc(-c2c[nH]c3ncccc23)n[nH]1)c1ccc2c(c1)OCO2 | > 5 µM |
| O=C(NCc1nc(-c2c[nH]c3ncccc23)n[nH]1)c1cc(F)ccc1[N+](=O)[O-] | > 5 µM |
| O=C(NCc1nc(-c2c[nH]c3ncccc23)n[nH]1)c1cc2cc(Cl)ccc2o1 | > 5 µM |
| O=C(NCc1nc(-c2c[nH]c3ncccc23)n[nH]1)c1c(F)cccc1F | > 5 µM |
| O=C(CCc1cccc(Br)c1)NCc1nc(-c2c[nH]c3ncccc23)n[nH]1 | > 5 µM |
| CCOc1ccccc1C(=O)NCc1nc(-c2c[nH]c3ncccc23)n[nH]1 | > 5 µM |
| O=C(C=Cc1ccccc1Cl)NCc1nc(-c2c[nH]c3ncccc23)n[nH]1 | > 5 µM |
| O=C(NCc1nc(-c2c[nH]c3ncccc23)n[nH]1)c1ccccc1[N+](=O)[O-] | > 5 µM |
| CCC(=O)C(=O)NCc1nc(-c2c[nH]c3ncccc23)n[nH]1 | > 5 µM |
| O=C(NCc1nc(-c2c[nH]c3ncccc23)n[nH]1)c1ccc(F)cc1F | > 5 µM |
| CC(C(=O)NCc1nc(-c2ccncc2)n[nH]1)c1cccc(C(=O)c2ccccc2)c1 (configuration not stated) | > 5 µM |
| O=C(NCc1nc(-c2ccncc2)n[nH]1)c1cc2ccccc2cc1O | ≤ 5 µM |
| O=C(NCc1nc(-c2c[nH]c3ncccc23)n[nH]1)c1ccc(Cl)nc1 | > 5 µM |
| COc1ccc(C(=O)NCc2nc(-c3c[nH]c4ncccc34)n[nH]2)c(O)c1 | > 5 µM |

| Compound | IC50 |
| --- | --- |
| COc1cccc(OC)c1C(=O)NCc1nc(-c2c[nH]c3ncccc23)n[nH]1 | > 5 µM |
| O=C(NCc1nc(-c2c[nH]c3ncccc23)n[nH]1)c1cccc(O)c1 | > 5 µM |
| Cc1cccc(C(=O)NCc2nc(-c3c[nH]c4ncccc34)n[nH]2)c1[N+](=O)[O-] | > 5 µM |
| O=C(CCc1ccccc1Br)NCc1nc(-c2ccncc2)n[nH]1 | > 5 µM |
| CCCc1ccc(C(=O)NCc2nc(-c3c[nH]c4ncccc34)n[nH]2)cc1 | > 5 µM |
| O=C(NCc1nc(-c2c[nH]c3ncccc23)n[nH]1)c1ccccc1Oc1ccccc1 | > 5 µM |
| CC(C)c1cc(C(=O)NCc2nc(-c3c[nH]c4ncccc34)n[nH]2)c(O)c(C(C)C)c1 | > 5 µM |
| CC(=O)NCC(=O)NCc1nc(-c2c[nH]c3ncccc23)n[nH]1 | > 5 µM |
| COc1ccc(C(=O)NCc2nc(-c3c[nH]c4ncccc34)n[nH]2)cc1O | > 5 µM |
| O=Cc1ccc(C(=O)NCc2nc(-c3c[nH]c4ncccc34)n[nH]2)cc1 | > 5 µM |
| O=C(NCc1nc(-c2c[nH]c3ncccc23)n[nH]1)c1cc2ccccc2cc1O | > 5 µM |
| O=C(NCc1nc(-c2c[nH]c3ncccc23)n[nH]1)c1cc(F)c(F)cc1[N+](=O)[O-] | > 5 µM |
| O=C(NCc1nc(-c2ccncc2)n[nH]1)C1CCc2ccccc2C1 (configuration not stated) | > 5 µM |
| O=C(NCc1nc(-c2c[nH]c3ncccc23)n[nH]1)C1=C(O)CC=CC([N+](=O)[O-])=C1 | > 5 µM |
| CC(C(=O)NCc1nc(-c2c[nH]c3ncccc23)n[nH]1)c1ccc(O)cc1 (configuration not stated) | > 5 µM |
| Cc1ccc(C(=O)NCc2nc(-c3c[nH]c4ncccc34)n[nH]2)cc1Br | > 5 µM |
| CC(C)(C)OC(=O)N1Cc2ccccc2CC1C(=O)NCc1nc(-c2ccncc2)n[nH]1 (configuration not stated) | > 5 µM |
| CC(C)Cc1ccc(C(C)C(=O)NCc2nc(-c3ccncc3)n[nH]2)cc1 (configuration not stated) | > 5 µM |
| O=C(NCc1nc(-c2c[nH]c3ncccc23)n[nH]1)C1CCCN1C(=O)OCc1ccccc1 (configuration not stated) | > 5 µM |
| O=C(NCc1nc(-c2c[nH]c3ncccc23)n[nH]1)c1cc(O)ccc1[N+](=O)[O-] | > 5 µM |
| O=C(NCc1nc(-c2c[nH]c3ncccc23)n[nH]1)c1cc(Cl)ccc1O | > 5 µM |
| Cc1ccc(C(=O)NCc2nc(-c3c[nH]c4ncccc34)n[nH]2)cc1 | > 5 µM |
| O=C(NCc1nc(-c2c[nH]c3ncccc23)n[nH]1)c1cc([N+](=O)[O-])ccc1Cl | > 5 µM |
| O=C(Nc1cccc2c(-c3ccncc3)n[nH]c12)c1cccs1 | > 5 µM |
| CC(CC(=O)NCc1nc(-c2c[nH]c3ncccc23)n[nH]1)CC(C)(C)C (configuration not stated) | > 5 µM |

| Compound | IC50 |
| --- | --- |
| COc1ccc(NC(=O)NCc2nc(-c3ccncc3)n[nH]2)c(OC)c1 | > 5 µM |
| CCC(C)C(NC(=O)OC(C)(C)C)C(=O)NCc1nc(-c2c[nH]c3ncccc23)n[nH]1 (configuration not stated) | > 5 µM |
| COc1ccccc1CCC(=O)NCc1nc(-c2ccncc2)n[nH]1 | > 5 µM |
| N#CCC(=O)NCc1nc(-c2c[nH]c3ncccc23)n[nH]1 | > 5 µM |
| Cc1cccc(CCC(=O)NCc2nc(-c3ccncc3)n[nH]2)c1 | > 5 µM |
| Cc1ccc([N+](=O)[O-])c(C(=O)NCc2nc(-c3c[nH]c4ncccc34)n[nH]2)c1 | > 5 µM |
| CC(=O)c1ccc(C(=O)NCc2nc(-c3c[nH]c4ncccc34)n[nH]2)cc1 | ≤ 5 µM |
| CCCCOc1ccc(C(=O)NCc2nc(-c3c[nH]c4ncccc34)n[nH]2)cc1 | > 5 µM |
| CC(C(=O)NCc1nc(-c2c[nH]c3ncccc23)n[nH]1)c1ccc(-c2ccccc2)c(F)c1 (configuration not stated) | > 5 µM |
| COc1ccc(C=CC(=O)NCc2nc(-c3ccncc3)n[nH]2)cc1O | > 5 µM |
| O=C(NCc1nc(-c2ccncc2)n[nH]1)c1ccccc1OCc1ccccc1 | > 5 µM |
| COc1cccc(C(=O)NCc2nc(-c3c[nH]c4ncccc34)cs2)c1 | ≤ 5 µM |
| O=C(NCc1nc(-c2c[nH]c3ncccc23)n[nH]1)c1ccc(O)cc1O | ≤ 5 µM |
| O=C(NCc1nc(-c2c[nH]c3ncccc23)n[nH]1)c1cccc(F)c1F | > 5 µM |
| Cc1ccc(C(=O)CCC(=O)NCc2nc(-c3c[nH]c4ncccc34)n[nH]2)cc1 | > 5 µM |
| COc1ccc2cc(C(C)C(=O)NCc3nc(-c4c[nH]c5ncccc45)n[nH]3)ccc2c1 (configuration not stated) | > 5 µM |
| Cc1cc(C)c(C(=O)NCc2nc(-c3ccncc3)n[nH]2)c(C)c1 | > 5 µM |
| O=C(CC1Cc2ccccc2C1)NCc1nc(-c2ccncc2)n[nH]1 | > 5 µM |
| CC(=O)Nc1cccc(C(=O)NCc2nc(-c3c[nH]c4ncccc34)n[nH]2)c1 | > 5 µM |
| Cn1nc(-c2ccncc2)nc1CNC(=O)c1cccs1 | > 5 µM |
| COc1cccc(C(=O)NCc2nc(-c3ccncc3)no2)c1 | > 5 µM |
| CCC(C(=O)NCc1nc(-c2ccncc2)n[nH]1)c1ccncc1 (configuration not stated) | > 5 µM |
| O=C(Cc1ccccc1)NCc1nc(-c2c[nH]c3ncccc23)n[nH]1 | > 5 µM |

Results, then the molecule that gave them:

| IC50 | Compound |
| --- | --- |
| ≤ 5 µM | CC(=O)Oc1ccccc1C(=O)NCc1nc(-c2ccncc2)n[nH]1 |
| ≤ 5 µM | O=C(NCc1nc(-c2ccncc2)n[nH]1)c1ccc([N+](=O)[O-])c(O)c1 |
| > 5 µM | O=C(NCc1nc(-c2ccncc2)n[nH]1)c1cc2cc(Cl)ccc2o1 |
| ≤ 5 µM | COc1ccc(C(=O)NCc2nc(-c3ccncc3)n[nH]2)cc1 |
| > 5 µM | CCOc1ccccc1C(=O)NCc1nc(-c2ccncc2)n[nH]1 |
| > 5 µM | O=C(Cc1cccc(O)c1)NCc1nc(-c2ccncc2)n[nH]1 |
| > 5 µM | Cc1cccc(C(=O)NCc2nc(-c3ccncc3)n[nH]2)c1 |
| > 5 µM | O=C(NCc1nc(-c2ccncc2)n[nH]1)c1ccc(Cl)c([N+](=O)[O-])c1 |
| > 5 µM | O=C(NCc1nc(-c2ccncc2)n[nH]1)c1cccc(F)c1 |
| > 5 µM | O=C(NCc1nc(-c2ccncc2)n[nH]1)c1ncc[nH]1 |
| > 5 µM | O=C(NCc1nc(-c2ccncc2)n[nH]1)c1ccc([N+](=O)[O-])cc1Cl |
| > 5 µM | O=C(Cc1ccc(C(F)(F)F)cc1)NCc1nc(-c2ccncc2)n[nH]1 |
| ≤ 5 µM | O=C(NCc1nc(-c2ccncc2)n[nH]1)c1ccc(O)cc1 |
| > 5 µM | O=C(NCc1nc(-c2ccncc2)n[nH]1)c1ccc(F)c([N+](=O)[O-])c1 |
| > 5 µM | O=C(NCc1nc(-c2ccncc2)n[nH]1)c1ccccc1C(=O)c1ccc(F)cc1 |
| > 5 µM | COc1ccc(Cl)cc1C(=O)NCc1nc(-c2ccncc2)n[nH]1 |
| > 5 µM | CN(C=O)c1ccc(C(=O)NCc2nc(-c3ccncc3)n[nH]2)cc1 |

| IC50 | Compound |
| --- | --- |
| > 5 µM | O=C(NCc1nc(-c2ccncc2)n[nH]1)c1cccc2ccccc12 |
| > 5 µM | O=C(NCc1nc(-c2ccncc2)n[nH]1)c1c(O)ccc2ccccc12 |
| > 5 µM | O=C(NCc1nc(-c2ccncc2)n[nH]1)c1ccc(F)cc1 |
| > 5 µM | COc1ccc(Br)c(C(=O)NCc2nc(-c3ccncc3)n[nH]2)c1 |
| > 5 µM | O=C(Cc1c(F)cccc1F)NCc1nc(-c2ccncc2)n[nH]1 |
| > 5 µM | O=C(NCc1nc(-c2ccncc2)n[nH]1)c1cnc[nH]1 |
| > 5 µM | Cc1ccc([N+](=O)[O-])c(C(=O)NCc2nc(-c3ccncc3)n[nH]2)c1 |
| > 5 µM | O=C(NCc1nc(-c2ccncc2)n[nH]1)c1cccc2c1OCC2 |
| ≤ 5 µM | CC(=O)Oc1ccc(C(=O)NCc2nc(-c3ccncc3)n[nH]2)cc1 |
| > 5 µM | O=C(NCc1nc(-c2ccncc2)n[nH]1)c1csc2ccccc12 |
| ≤ 5 µM | Cc1cc(C(=O)NCc2nc(-c3ccncc3)n[nH]2)ccc1O |
| ≤ 5 µM | O=C(NCc1nc(-c2ccncc2)n[nH]1)c1cccc(Cl)c1O |
| > 5 µM | COc1cc(C(=O)NCc2nc(-c3ccncc3)n[nH]2)cc(Cl)n1 |
| > 5 µM | COc1cc(Cl)ccc1C(=O)NCc1nc(-c2ccncc2)n[nH]1 |
| ≤ 5 µM | O=C(CCc1nc(-c2ccncc2)n[nH]1)c1ccc(O)cc1 |
| > 5 µM | O=C(NCc1nc(-c2ccncc2)n[nH]1)c1cscn1 |
| ≤ 5 µM | O=C(NCc1nc(-c2ccncc2)n[nH]1)c1ccc(O)cc1O |
